Key:
[1] = test system: H1975 (EGFR L858R/T790M) NSCLC cells; test: Cell proliferation assay (MTS cell viability); format: cell-based; details: Homo sapiens, NCI-H1975, 72 h; H1975 cells, 3 days of exposure, MTS
[2] = test system: HCC827 (EGFR Del) NSCLC cells; test: Cell proliferation assay (MTS cell viability); format: cell-based; details: Homo sapiens, 72 h; HCC827 cells, 3 days of exposure, MTS
Experimental: (§1) Effects of test compounds on in vitro proliferation were measured by MTS cell viability assay.
(§2) Prepare test compounds in each well with a final medium volume of 200 μl;
Incubate for 3 days of exposure;
(§3) Prepare reagents following the instructions in the Cell Proliferation Assay kit (Promega);
(§4) Change to serum-free medium with a final volume of 100 l/well. Prepare a set of wells with medium only for background subtraction;
(§5) Add 20 μl MTS solution containing PMS to each well (final concentration of MTS will be 0.33 mg/ml);
(§6) Incubate 1 to 4 hours at 37° C. in a humidified, 5% CO2 atmosphere.
(§7) Record absorbance at 490 nm using VICTOR™ X5 plate reader (PerkinElmer).
(§8) All experimental points were set up in three wells and all experiments were repeated at least three times.

[3] = test system: A549 (EGFR WT) NSCLC cells; test: Cell proliferation assay (MTS cell viability); format: cell-based; details: Homo sapiens, 72 h; A549 cells, 3 days of exposure, MTS
Experimental: as §1
A549 cells were maintained in Ham's F12K medium (Gibco) supplemented with 10% FBS, 100 units/mL penicillin, 100 units/mL streptomycin, and 2 mM glutamine.
as §2
Incubate for 3 days of exposure;
as §3, §4, §5, §6, §7, §8

ALK (h) = ALK (h) (Homo sapiens (Human), UniProt Q9UM73); test: Kinase assay, single dose inhibition (Millipore, 33P-ATP filter binding); format: biochemical; details: 0.1 μM test compound, 10 μM ATP, remaining activity relative to DMSO control = 100%
Sequence of ALK (h) (Q9UM73 19-1620): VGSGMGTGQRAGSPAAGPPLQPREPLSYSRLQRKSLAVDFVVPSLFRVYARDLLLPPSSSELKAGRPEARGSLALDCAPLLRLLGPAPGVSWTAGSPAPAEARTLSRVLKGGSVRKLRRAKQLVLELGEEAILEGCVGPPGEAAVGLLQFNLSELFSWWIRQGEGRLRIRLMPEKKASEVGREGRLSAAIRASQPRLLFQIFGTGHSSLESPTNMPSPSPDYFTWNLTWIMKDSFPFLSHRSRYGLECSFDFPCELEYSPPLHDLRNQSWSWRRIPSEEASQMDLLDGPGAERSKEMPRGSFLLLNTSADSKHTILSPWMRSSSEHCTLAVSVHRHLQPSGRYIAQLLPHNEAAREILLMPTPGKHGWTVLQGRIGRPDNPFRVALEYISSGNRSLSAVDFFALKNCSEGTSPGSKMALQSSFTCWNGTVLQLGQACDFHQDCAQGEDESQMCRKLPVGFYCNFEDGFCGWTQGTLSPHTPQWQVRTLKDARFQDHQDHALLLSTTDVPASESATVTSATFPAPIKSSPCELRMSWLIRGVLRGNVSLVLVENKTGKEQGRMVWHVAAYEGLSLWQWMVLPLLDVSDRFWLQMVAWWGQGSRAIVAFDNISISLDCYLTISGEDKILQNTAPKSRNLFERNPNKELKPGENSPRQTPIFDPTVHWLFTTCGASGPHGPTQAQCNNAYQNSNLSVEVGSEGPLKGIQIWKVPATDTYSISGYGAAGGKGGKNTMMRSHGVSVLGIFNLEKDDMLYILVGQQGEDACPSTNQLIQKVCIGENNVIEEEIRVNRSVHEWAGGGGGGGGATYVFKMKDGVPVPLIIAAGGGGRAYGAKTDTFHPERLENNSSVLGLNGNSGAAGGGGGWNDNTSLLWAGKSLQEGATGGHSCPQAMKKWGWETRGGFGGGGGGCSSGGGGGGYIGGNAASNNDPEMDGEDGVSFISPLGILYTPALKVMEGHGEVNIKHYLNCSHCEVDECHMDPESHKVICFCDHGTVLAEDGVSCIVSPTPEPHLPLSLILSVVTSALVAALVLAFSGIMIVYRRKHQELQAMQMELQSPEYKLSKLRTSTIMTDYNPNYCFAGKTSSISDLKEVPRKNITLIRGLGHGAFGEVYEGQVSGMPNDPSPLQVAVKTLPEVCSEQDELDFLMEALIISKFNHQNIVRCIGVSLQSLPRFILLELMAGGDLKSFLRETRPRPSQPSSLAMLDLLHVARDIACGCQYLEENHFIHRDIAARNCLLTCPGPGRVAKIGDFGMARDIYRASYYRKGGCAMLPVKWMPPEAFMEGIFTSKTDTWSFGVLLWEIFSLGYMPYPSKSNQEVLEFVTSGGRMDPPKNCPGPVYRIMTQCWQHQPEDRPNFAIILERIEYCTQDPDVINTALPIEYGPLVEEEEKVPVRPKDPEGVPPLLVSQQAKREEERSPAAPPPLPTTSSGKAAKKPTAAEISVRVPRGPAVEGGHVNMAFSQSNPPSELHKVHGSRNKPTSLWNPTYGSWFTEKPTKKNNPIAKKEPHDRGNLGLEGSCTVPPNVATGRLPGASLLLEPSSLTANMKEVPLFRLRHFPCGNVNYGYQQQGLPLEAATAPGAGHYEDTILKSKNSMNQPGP
Experimental: (§9) Assay conditions included 10 μM ATP and 100 nM test compounds.
(§10) All reactions are initiated by the addition of the MgATP mix. After incubation for 40 minutes at room temperature, the reaction is stopped by the addition of 3% phosphoric acid solution. 10 μL of the reaction is then spotted onto a P30 filtermat and washed three times for 5 minutes in 75 mM phosphoric acid and once in methanol prior to drying and scintillation counting. This assay is performed by Millipore. The experiment is carried out in duplicate. The value for the control sample (DMSO) was set to 100%, and the values for the compound-treated samples were expressed as activity relative to the control sample.

EGFR (h) = EGFR (h) (Homo sapiens (Human), UniProt P00533); test: as above; format: biochemical; details: 0.1 μM test compound, 10 μM ATP; remaining activity relative to DMSO control = 100%
Experimental: as §9, §10

EGFR (L858R) (h) = EGFR (L858R) (h) (Homo sapiens (Human), UniProt P00533, L858R); test: as above; format: biochemical; details: 0.1 μM test compound, 10 μM ATP; remaining activity relative to DMSO control = 100%
EGFR (T790M) (h) = EGFR (T790M) (h) (Homo sapiens (Human), UniProt P00533, T790M); test: as above; format: biochemical; details: 0.1 μM test compound, 10 μM ATP; remaining activity relative to DMSO control = 100%
Experimental: as §9, §10

EGFR (T790M, L858R) (h) = EGFR (T790M, L858R) (h) (Homo sapiens (Human), UniProt P00533, L858R/T790M); test: as above; format: biochemical; details: 0.1 μM test compound, 10 μM ATP; remaining activity relative to DMSO control = 100%
Experimental: as §9, §10

| Compound | IC50 [1] [µM] | IC50 [2] [µM] | IC50 [3] [µM] | Activity (control) % ALK (h) (ALK (h)) [%] | Activity (control) % EGFR (h) (EGFR (h)) [%] | Activity (control) % EGFR (L858R) (h) (EGFR (L858R) (h)) [%] | Activity (control) % EGFR (T790M) (h) (EGFR (T790M) (h)) [%] | Activity (control) % EGFR (T790M, L858R) (h) (EGFR (T790M, L858R) (h)) [%] | remaining activity at 0.1 µM (ALK (h); 40 min) [%] |
| --- | --- | --- | --- | --- | --- | --- | --- | --- | --- |
| COc1cc(N2CCC(N(C)C)CC2)ccc1Nc1ncc(Cl)c(Nc2ccccc2C(=O)C(=O)NO)n1 [Example 3, 2-(2-(5-chloro-2-(4-(4-(dimethylamino)piperidin-1-yl)-2-methoxyphenylamino)pyrimidin-4-ylamino)phenyl)-N-hydroxy-2-oxoacetamide] | 0.84 | 0.94 | > 3 | – | – | – | – | – | – |
| CNC(=O)C(=O)c1ccccc1Nc1nc(Nc2ccc(N3CCC(N(C)C)CC3)cc2OC)ncc1Cl [Example 16, 2-(2-((5-chloro-2-((4-(4-(dimethylamino)piperidin-1-yl)-2-methoxyphenyl)amino)pyrimidin-4-yl)amino)phenyl)-N-methyl-2-oxoacetamide] | 1.13 | 0.9 | > 3 | – | – | – | – | – | – |
| COc1cc(N2CCN(C(C)=O)CC2)ccc1Nc1ncc(Cl)c(Nc2ccccc2C(=O)C(=O)N2CCOCC2)n1 [Example 42, 1-(2-(2-(4-(4-acetylpiperazin-1-yl)-2-methoxyphenylamino)-5-chloropyrimidin-4-ylamino)phenyl)-2-morpholinoethane-1,2-dione] | > 3 | > 3 | > 3 | – | – | – | – | – | – |
| COc1cc(N2CCN(C)CC2)ccc1Nc1ncc(C(F)(F)F)c(Nc2ccccc2C(=O)C(=O)N2CCOCC2)n1 [Example 43, 1-(2-(2-(2-methoxy-4-(4-methylpiperazin-1-yl)phenylamino)-5-(trifluoromethyl)pyrimidin-4-ylamino)phenyl)-2-morpholinoethane-1,2-dione] | > 3 | > 3 | > 3 | – | – | – | – | – | – |
| COc1cc(N2CCN(C)CC2)ccc1Nc1ncc(Cl)c(Nc2ccccc2C(=O)C(=O)N2CCOCC2)n1 [Example 44, 1-(2-(5-chloro-2-(2-methoxy-4-(4-methylpiperazin-1-yl)phenylamino)pyrimidin-4-ylamino)phenyl)-2-morpholinoethane-1,2-dione] | 1.23 | 2.36 | > 3 | – | – | – | – | – | – |
| COc1cc(N2CCC(N(C)C)CC2)ccc1Nc1ncc(C(F)(F)F)c(Nc2ccccc2C(=O)C(=O)N2CCOCC2)n1 [Example 45, 1-(2-(2-(4-(4-(dimethylamino)piperidin-1-yl)-2-methoxyphenylamino)-5-(trifluoromethyl)pyrimidin-4-ylamino)phenyl)-2-morpholinoethane-1,2-dione] | > 3 | > 3 | > 3 | – | – | – | – | – | – |
| COc1cc(N2CCN(C)CC2)ccc1Nc1ncc(Cl)c(Nc2ccccc2C(=O)C(=O)N(C)C)n1 [Example 46, 2-(2-(5-chloro-2-(2-methoxy-4-(4-methylpiperazin-1-yl)phenylamino)pyrimidin-4-ylamino)phenyl)-N,N-dimethyl-2-oxoacetamide] | 0.81 | 1.63 | > 3 | – | – | – | – | – | – |
| CNC(=O)C(=O)c1ccccc1Nc1nc(Nc2ccc(N3CCN(C)CC3)cc2OC)ncc1Cl [Example 47, 2-(2-(5-chloro-2-(2-methoxy-4-(4-methylpiperazin-1-yl)phenylamino)pyrimidin-4-ylamino)phenyl)-N-methyl-2-oxoacetamide] | > 3 | > 3 | > 3 | – | – | – | – | – | – |
| C=CC(=O)Nc1cccc(Nc2ncc(Cl)c(Nc3ccccc3C(=O)C(=O)NC)n2)c1 [Example 57, N-(3-(5-chloro-4-(2-(2-(methylamino)-2-oxoacetyl)phenylamino)pyrimidin-2-ylamino)phenyl)acrylamide] | 0.1 | 0.27 | > 3 | – | – | – | – | – | – |
| C=CC(=O)Nc1cccc(Nc2ncc(C(F)(F)F)c(Nc3ccccc3C(=O)C(N)=O)n2)c1 [Example 58, N-(3-(4-(2-(2-amino-2-oxoacetyl)phenylamino)-5-(trifluoromethyl)pyrimidin-2-ylamino)phenyl)acrylamide] | 0.98 | 0.53 | 0.37 | – | – | – | – | – | – |
| C=CC(=O)N1CCC(NC(=O)C(=O)c2ccccc2Nc2nc(Nc3ccc(F)c(OC)c3)ncc2Cl)CC1 [Example 59, N-(1-acryloylpiperidin-4-yl)-2-(2-(5-chloro-2-(4-fluoro-3-methoxyphenylamino)pyrimidin-4-ylamino)phenyl)-2-oxoacetamide] | 0.19 | > 3 | > 3 | – | – | – | – | – | – |
| CNC(=O)C(=O)c1ccccc1Nc1nc(Nc2ccc(N3CCN(C)CC3)c(OC)c2)ncc1Cl [Example 60, 2-(2-(5-chloro-2-(3-methoxy-4-(4-methylpiperazin-1-yl)phenylamino)pyrimidin-4-ylamino)phenyl)-N-methyl-2-oxoacetamide] | 0.15 | 0.87 | 2.08 | – | – | – | – | – | – |
| COc1cc(Nc2ncc(Cl)c(Nc3ccccc3C(=O)C(=O)N(C)C)n2)ccc1F [Example 62, 2-(2-(5-chloro-2-(4-fluoro-3-methoxyphenylamino)pyrimidin-4-ylamino)phenyl)-N,N-dimethyl-2-oxoacetamide] | > 3 | 2.33 | > 3 | – | – | – | – | – | – |
| CNC(=O)C(=O)c1ccccc1Nc1nc(Nc2ccc(F)c(OC)c2)ncc1Cl [Example 63, 2-(2-(5-chloro-2-(4-fluoro-3-methoxyphenylamino)pyrimidin-4-ylamino)phenyl)-N-methyl-2-oxoacetamide] | 0.64 | > 3 | > 3 | – | – | – | – | – | – |
| C=CC(=O)Nc1cc(Nc2ncc(Cl)c(Nc3ccccc3C(=O)C(=O)NC)n2)c(F)cc1OC [Example 68, N-(5-(5-chloro-4-(2-(2-(methylamino)-2-oxoacetyl)phenylamino)pyrimidin-2-ylamino)-4-fluoro-2-methoxyphenyl)acrylamide] | 0.65 | 1.2 | > 3 | – | – | – | – | – | – |
| C=CC(=O)Nc1ccc(N2CCN(C)CC2)c(Nc2ncc(Cl)c(Nc3ccccc3C(=O)C(=O)N(C)C)n2)c1 [Example 135, N-(3-(5-chloro-4-(2-(2-(dimethylamino)-2-oxoacetyl)phenylamino)pyrimidin-2-ylamino)-4-(4-methylpiperazin-1-yl)phenyl)acrylamide] | – | – | – | 80 | 106 | 103 | 96 | 95 | – |
| C=CC(=O)Nc1ccc(OC2CCOC2)c(Nc2ncc(Cl)c(Nc3ccccc3C(=O)C(=O)N(C)C)n2)c1 (stereo not shown) [Example 136, N-(3-(5-chloro-4-(2-(2-(dimethylamino)-2-oxoactyl)phenylamino)pyrimidin-2-ylamino)-4-(tetrahydrofuran-3-yloxy)phenyl)acrylamide] | – | – | – | – | 99 | 104 | 92 | 54 | 29 |
| C=CC(=O)Nc1cccc(Oc2nc(Nc3ccc(N4CCN(C)CC4)cc3OC)ncc2Cl)c1 [WZ4002, reference compound] | – | – | > 3 | – | – | – | – | – | – |
| N-(5-(5-chloro-4-(2-(2-(dimethylamino)-2-oxoactyl)phenylamino)pyrimidin-2-ylamino)-2-(tetrahydrofuran-3-yloxy)phenyl)acrylamide [Example 124] | – | – | – | 16 | 109 | 100 | 78 | 20 | – |
